Data: PubChem BioAssay AID463136 (University of Pittsburgh Molecular Library Screening Center, 2010)
Inconclusive results are not listed. Activity calls are given as the source filed them. The rule behind the calls is not given here.

How the values were obtained:
[1] = dynein cargo transport inhibitors, potency, dose response, imaging, high-content imaging (AID 463136); details: HCS imaging, dynein-mediated cargo transport inhibition; inhibition at max concentration; at 50 µM; stronger effect = higher value;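 note: mouse mammary adenocarcinoma 3617.4 cells expressing GFP-tagged rat glucocorticoid receptor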; for inhibition: reference of the scale not given here
[2] = system: HCS imaging, dynein-mediated cargo transport inhibition; test: as above

SMILES | inhibition [1] [%] | IC50 [2]
O=C(NCc1cccnc1)/C(=C/c1ccc(-c2cccc(Cl)c2)o1)S(=O)(=O)c1ccccc1 | 42 | > 50 µM (inactive)
O=[N+]([O-])c1ccc(N/N=C/c2c[nH]c3ccccc23)cc1 | 118 | 21.7 µM
N#Cc1cccc(NC(=O)CSc2ccc3c4c(cccc24)C(=O)c2ccccc2-3)c1 | 104 | 33.3 µM
Cc1cc(N2CCCC2)c(F)cc1/C=C\[N+](=O)[O-] | 126 | 25.2 µM
CNC(=O)c1nnsc1S(=O)c1ccc(Cl)cc1 (stereo not drawn) | 74.6 | 7.18 µM
O=C1c2ccccc2-c2onc3ccc(NCc4ccco4)c1c23 | 87.2 | 41.4 µM
O=C(CCl)Nc1cc(-c2ccccc2)nn1-c1ccccc1 | 81.4 | 11.8 µM
CC1=NN(c2ccccc2)C(=O)/C1=C/C=C/c1ccccc1 | 22.7 | > 50 µM (inactive)
CCSc1nnc(-c2sc3nnc(-c4ccccc4)c(-c4ccccc4)c3c2N)o1 | 134 | 31.3 µM
O=C(CCl)N(Cc1ccccc1)c1ccccc1 | 69.4 | 10 µM
O=C(CCl)N(CCCNC(=O)C(F)(F)F)c1ccc([N+](=O)[O-])cc1 | 83.1 | 10.8 µM
COc1ccccc1NS(=O)(=O)c1cc([N+](=O)[O-])ccc1N/N=C/c1c[nH]c2ccccc12 | 21.9 | > 50 µM (inactive)
Cc1ccc(-n2nnnc2Sc2ccc(S(=O)(=O)NCCN(C)C)cc2[N+](=O)[O-])cc1 | 86.3 | 11.9 µM
COc1cccc(-n2nc(C#N)c(Cl)cc2=O)c1 | 48.5 | 11.2 µM
Cc1cc(C)cc(N=Cc2[nH]c3ccc(Br)c(Cl)c3c2O)c1 | 122 | 27.6 µM
O=C(NC1CCCCC1)C(c1cccnc1)N(C(=O)CCl)c1cccc(Cl)c1 (stereo not drawn) | 52.2 | 7.48 µM
CCN1/C(=C/c2ccc3ccc(C)cc3[n+]2CC)Sc2ccccc21 | 98.5 | 2.13 µM
O=C(Cc1ccccc1)Nc1cccc(N2C(=O)C=CC2=O)c1 | 4.22 | > 50 µM (inactive)
COc1ccc(N(C(=O)CCl)C(C(=O)NCCc2ccccc2)c2cccs2)cc1Cl (stereo not drawn) | 93.6 | 14.8 µM
N#C/C(=C/c1ccc(N2CCCCCC2)o1)c1ccc(F)cc1 | 33.8 | > 50 µM (inactive)
Cc1cc(-n2c(C)cc(C(=O)CCl)c2C)no1 | 67.7 | 9.45 µM
O=C(CCl)N(c1ccc(Cl)cc1)c1c[nH]c2ccccc12 | 10.3 | > 50 µM (inactive)

SMILES | inhibition [1] [%] | IC50 [2]
Cc1nn(C)c(C(=O)Sc2cccc(Cl)c2)c1[N+](=O)[O-] | 10.5 | > 50 µM (inactive)
Cc1ccc(C2=NN(C(=O)CCl)C(c3cccs3)C2)o1 (stereo not drawn) | 80.3 | 8.74 µM
COc1ccc(N2C(=O)CC(Sc3ncn[nH]3)C2=O)c(OC)c1 (stereo not drawn) | 5.17 | > 50 µM (inactive)
Cc1cc(C)nc(S/C=C/C(=O)c2ccccc2F)n1 | 83.3 | 19.3 µM
Cc1ccc(C2=NOC(=O)/C2=C\C=C\c2ccccc2)cc1 | 71 | 36.6 µM
CCOC(=O)C(C(=O)OCC)C(C(=O)OCC)N1CCOCC1 (stereo not drawn) | 89.2 | 14 µM
Cc1ccccc1N1C(=O)CC(Sc2nnc(-c3ccccc3)o2)C1=O (stereo not drawn) | 16.4 | > 50 µM (inactive)
CCCn1nc(-c2ccccc2)c2nc3ccccc3nc21 | -0.033 | > 50 µM (inactive)
CN(C(=O)CCl)C1CCCc2ccccc21 (stereo not drawn) | 70.4 | 6.32 µM
N=c1oc2c3c4c(cc2cc1C(=O)Nc1ccccc1)CCCN4CCC3 | 99 | > 50 µM (inactive)
CC[n+]1c(/C=C/C=C/N(C(C)=O)c2ccccc2)sc2cc(OC)ccc21 | 93.8 | 6.65 µM
CC(C)(C)C(=O)/C(=C/c1ccncc1)n1cncn1 | 82.3 | 8.77 µM
Cc1ccc(N2C(=O)NC(=O)/C(=C\C=C\c3ccco3)C2=O)cc1 | 108 | 27.7 µM
CC1(C)CCSC(/C=C/c2ccccc2)=N1 | 92.6 | 18.7 µM
CC(C)Cn1c([N+](=O)[O-])nc2c1c(=O)[nH]c(=O)n2C | 83.8 | 5.26 µM
BrC(=C\c1ccccc1)/C=N/n1cnnc1 | 90.7 | 18.4 µM
O=C(Nc1ccc(Cl)cc1)/C(=C/c1cccc(O)c1)c1nc2ccccc2s1 | 40.7 | > 50 µM (inactive)
O=C(NCc1cccnc1)/C(=C\c1ccc(-c2ccc(Cl)c(Cl)c2)o1)S(=O)(=O)c1ccccc1 | 9.8 | > 50 µM (inactive)
Cn1ncc(S(=O)(=O)Cc2ccccc2)c(Cl)c1=O | 10.6 | > 50 µM (inactive)
C=CCn1c(Sc2ncc([N+](=O)[O-])s2)n[nH]c1=O | 62.3 | 20 µM
COCCN(C(=O)CCl)C(C(=O)NC1CCCCC1)c1ccccc1C (stereo not drawn) | 79.5 | 24.8 µM
CCN1CC=C2C(C#N)=C(N)C(C#N)(C#N)C(CCc3ccccc3)C2C1 (stereo not drawn) | 98.8 | 19.5 µM

SMILES | inhibition [1] [%] | IC50 [2]
COC1=C(C)C(O)=C(C(=O)/C=C/c2ccccc2)C(=O)C1(C)C | 88.2 | 12.2 µM
COC(=O)c1ccc(-n2c(C)cc(C(=O)CCl)c2C)cc1 | 66.8 | 21.9 µM
O=c1cc(-c2c(F)c(F)c(F)c(F)c2F)oc2c(F)c(F)c(F)c(F)c12 | 92 | 27.7 µM
N#CC(C#N)=C1C=CC=CN1/C(=C\c1ccco1)C(=O)c1ccc(Br)cc1 | 33.6 | > 50 µM (inactive)
CC(=O)n1cc(N(C(=O)CCl)c2ccc([N+](=O)[O-])cc2)c2ccccc21 | 25.2 | > 50 µM (inactive)
CC(C)(C)C(=O)/C=c1\s/c(=C\c2ccc(-c3ccc([N+](=O)[O-])cc3)o2)c(=O)n1CC(=O)NC(N)=O | 98.8 | 0.825 µM
CCCCc1c(C)c(C#N)c2nc3ccccc3n2c1Cl | -60.6 | > 50 µM (inactive)
O=[N+]([O-])c1ccc(-c2ccc(/C=N/Nc3nc(N4CCCCC4)nc(N4CCCCC4)n3)o2)cc1 | 22.5 | > 50 µM (inactive)
Cc1c(C#N)c(NC(=O)CCl)n(Cc2cccs2)c1C | 69.2 | 24.7 µM
O=C(CCl)N(C/C=C/c1ccccc1)c1ccc2c(c1)OCCO2 | 78.1 | 27.1 µM
CC1(C)COC(/C=C/c2cccc([N+](=O)[O-])c2)=N1 | 88.6 | 10 µM
O=C1/C(=C/c2ccccc2[N+](=O)[O-])COc2ccccc21 | 39.6 | > 50 µM (inactive)
Cn1cnc([N+](=O)[O-])c1S(=O)(=O)c1ccc(Cl)cc1 | 78.2 | 3.72 µM
CCN(CC)c1ccc2cc(-c3nc(-c4ccc(OC)cc4)cs3)c(=O)oc2c1 | 98.4 | 25.7 µM
CCc1ccc(N2C(=O)NC(=O)/C(=C\C=C\c3ccco3)C2=O)cc1 | 165 | 27.5 µM
Cc1cc(C(=O)CCl)c(C)n1Cc1ccco1 | 85.7 | 13.5 µM
O=C1C(Cl)=C(NCCN2CCCCC2)C(=O)c2ccccc21 | 63.5 | 31.8 µM
O=C(NC1CCCC1)C(c1ccc(F)cc1)N(Cc1ccc(F)cc1)C(=O)CCl (stereo not drawn) | 73.1 | 38.5 µM
O=C(/C=C/c1cccc([N+](=O)[O-])c1)n1cnc2ccccc21 | 85.7 | 17.3 µM
O=C(/C=C/c1ccccc1Cl)c1cccnc1 | 85.3 | 17.2 µM
O=C(c1nnsc1S(=O)(=O)c1ccc(Cl)cc1)N1CCOCC1 | 60.5 | 5.38 µM
O=S(=O)(c1ccccc1)c1ncc(C(F)(F)F)cc1Cl | 79.3 | 8.14 µM

SMILES | inhibition [1] [%] | IC50 [2]
C=CCSc1nc2ccccc2n1C(=O)/C=C/c1cc(OC)c(OC)c(OC)c1 | 25.5 | > 50 µM (inactive)
COc1ccc(-c2csc3nc(-c4ccccc4F)oc(=O)c23)cc1OC | 20.3 | > 50 µM (inactive)
CC1CCc2cc(F)ccc2N1C(=O)CCl (stereo not drawn) | 77.7 | 10.5 µM
CC(C)N1C/C(=C/c2ccsc2)C(=O)/C(=C/c2ccsc2)C1 | 69.2 | 40.1 µM
Cc1ccc(C)c2nc3sc(C(=O)N4CCCc5ccccc54)c(N)c3cc12 | 34.8 | > 50 µM (inactive)
O=C(c1ccccc1)c1ccccc1N1C(=O)C=CC1=O | 7.43 | > 50 µM (inactive)
O=c1c(Cl)cc(Cl)nn1-c1ccccc1 | 72.4 | 10.5 µM
CN1C(=O)NC(=O)/C(=C/c2ccc([N+](=O)[O-])s2)C1=O | 84.7 | 12 µM
COCCCNC(=O)c1ccc2c3c(onc13)-c1ccccc1C2=O | 98.1 | 16.7 µM
N#C/C(=C/c1ccc(N2CCCCC2)o1)C(=O)Nc1ccc(Cl)cc1 | 97.4 | 40.4 µM
CC(C)CN1C(=O)/C(=C/c2c(N3CCc4ccccc4C3)nc3ccccn3c2=O)SC1=S | 131 | 26 µM
COC(=O)/C=C\C(=O)Nc1cccc([N+](=O)[O-])c1 | 5.31 | > 50 µM (inactive)
CCOC(=O)c1cn(-c2c(Cl)cccc2Cl)c2cc(Cl)c([N+](=O)[O-])cc2c1=O | 82.8 | 29 µM
O=C1C=CC2C(c3ccc4c(c3)OCO4)CC1N2Cc1ccccc1 (stereo not drawn) | 13 | > 50 µM (inactive)
O=C1C=C(NC2=CC3OC(c4ccccc4)OCC3OC2=O)CCC1 (stereo not drawn) | 13 | > 50 µM (inactive)
O=C(O)c1ccc(NC2=C(Cl)C(=O)c3ccccc3C2=O)cc1 | 71.1 | 15.2 µM
COc1cc(/C=C(/C(=O)c2cccs2)c2nc3ccccc3[nH]2)cc(OC)c1O | 61.2 | 13.8 µM
O=[N+]([O-])c1ccc(C2=NN(c3ccccc3)C(c3ccco3)C2)cc1 (stereo not drawn) | – | 32.3 µM
Cc1cccc2cc3c(N)c(C(=O)N4CCc5ccccc54)sc3nc12 | – | 5.15 µM
